Experimental data taken from PubChem BioAssay AID1648 (Sanford-Burnham Center for Chemical Genomics, 2009).
Active and inactive are the calls of the source. How the calls were made is not given here.

Molecular target: Serine/threonine-protein kinase mTOR (Homo sapiens) (UniProt P42345)
Assay: binders of mTOR FRB domain, biophysical, NMR (AID 1648)
Conditions: NMR binding to FRB domain, chemical shift

Serine/threonine-protein kinase mTOR (Homo sapiens), sequence (P42345 2015-2114): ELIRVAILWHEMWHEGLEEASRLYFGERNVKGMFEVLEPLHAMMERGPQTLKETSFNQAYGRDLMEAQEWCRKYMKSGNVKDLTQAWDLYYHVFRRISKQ

In the case of `CCOC(=O)c1ccc2c(c1)nnn2C`, the Kd is reported as > 4 mM (inactive).

In the case of `O=C(Nc1ccccc1)c1cnc2n(c1=O)CCS2`, the Kd is reported as > 4 mM (inactive).

For `C[C@]12CC(=O)C3C(CC[C@@H]4C[C@H](O)CC[C@]34C)C1CC[C@]2(O)C(=O)CO` (some centres undefined), the Kd was > 4 mM (inactive).

In the case of `S=c1nc(Cc2ccccc2)[nH][nH]1`, the Kd is reported as > 4 mM (inactive).

In the case of `CN(C)C(=O)Nc1ccc(F)cc1F`, the Kd is reported as > 4 mM (inactive).

`Cc1ccc(CN2C3=NC(=O)CN3c3ccccc32)cc1` was tested, and the Kd was > 4 mM (inactive).

In the case of `CCOC(=O)c1c(C)cc(O)cc1O`, the Kd is reported as > 4 mM (inactive).

In the case of `Cc1nc2ccccc2c(=O)n1-c1cccc(O)c1`, the Kd is reported as > 4 mM (inactive).

With `O=C1CS/C(=N/N=C2CCCC2)N1` the Kd was > 4 mM (inactive).

`O=C(O)CCC(=O)Nc1ccccn1` was tested, and the Kd was > 4 mM (inactive).

With `Cc1occc1C(=O)Nc1ccc2c(c1)OCO2` the Kd was > 4 mM (inactive).

With `CC(=O)N1CCC(NC2CCCCCC2)CC1` the Kd was > 4 mM (inactive).

For `CC(C)/C(O)=C1/C(=O)O[C@@H](c2ccoc2)[C@]2(C)C(O)[C@@H](O)[C@@]34OC5(C)OC67CC(C)(C(O)[C@]6(O)[C@@H](O)[C@]3(O5)C12)[C@H](CC(=O)O)[C@]74C` (some centres undefined), the Kd was > 4 mM (inactive).

For `Cc1c(C(=O)O)cnn1-c1ccccc1`, the Kd was > 4 mM (inactive).

In the case of `Cc1cccc(-n2c(N)cc(=O)[nH]c2=S)c1C`, the Kd is reported as > 4 mM (inactive).

For `CC1(C)CC2C1CCC1(C)OC2(C)CCC1O` (centres undefined), the Kd was > 4 mM (inactive).

In the case of `O=C1Nc2ccccc2C1(O)Cc1ccncc1` (centres undefined), the Kd is reported as > 4 mM (inactive).

`C/C1=C/CC(C)(C)/C=C/C/C(C)=C/CC1` was tested, and the Kd was > 4 mM (inactive).

For `Cc1cc(C)nc(/N=C(/N)Nc2cccc(F)c2)n1`, the Kd was > 4 mM (inactive).

In the case of `CN1CCC(NC(=O)C2CCCO2)CC1` (centres undefined), the Kd is reported as > 4 mM (inactive).

In the case of `NCc1n[nH]c(=O)c2ccccc12`, the Kd is reported as > 4 mM (inactive).

For `CC(C)=CCC1=C(O)c2ccccc2C(=O)C1=O`, the Kd was > 4 mM (inactive).

In the case of `O=C(NCc1cccnc1)c1ccccn1`, the Kd is reported as > 4 mM (inactive).

For `S=c1[nH]c2cccnc2[nH]1`, the Kd was > 4 mM (inactive).

With `Cn1nc(C(=O)N2CCOCC2)c2ccccc2c1=O` the Kd was > 4 mM (inactive).

`O=C(CN1CCOCC1)Nc1cccc(Br)c1` was tested, and the Kd was > 4 mM (inactive).

In the case of `O=C1CNC(=O)N1c1cccc(Cl)c1`, the Kd is reported as > 4 mM (inactive).

`O=C(NCc1ccco1)c1ccc(=O)[nH]c1` was tested, and the Kd was > 4 mM (inactive).

`Cc1ccc(-c2nc(-c3cccnc3)no2)cc1` was tested, and the Kd was > 4 mM (inactive).

With `O=C(O)C1=CCCNC1` the Kd was > 4 mM (inactive).

In the case of `COc1ccc2c(c1OC)C(=O)O[C@H]2[C@H]1c2cc3c(cc2CCN1C)OCO3`, the Kd is reported as > 4 mM (inactive).

In the case of `CN(C(=O)c1cc2cccnc2n(C)c1=O)c1ccccc1`, the Kd is reported as > 4 mM (inactive).

For `COc1cc2c(cc1OC)[C@@]13CCN4CC5=CCOC6CC(=O)N2C1[C@H]6[C@H]5C[C@H]43` (some centres undefined), the Kd was > 4 mM (inactive).

For `O=C(O)CCc1c[nH]c2ccccc12`, the Kd was > 4 mM (inactive).

In the case of `Cc1cc(C)n(S(=O)(=O)c2ccc(C(C)(C)C)cc2)n1`, the Kd is reported as > 4 mM (inactive).

`COc1cccc(S(=O)(=O)Nc2cccnc2)c1` was tested, and the Kd was > 4 mM (inactive).

`NS(=O)(=O)c1ccc(N=C2NC(=O)CS2)cc1` was tested, and the Kd was > 4 mM (inactive).

In the case of `O=CN1CCN(C(=O)c2ccccc2Cl)CC1`, the Kd is reported as > 4 mM (inactive).

In the case of `CCN1C(=O)N(CO)C2C1N(C)C(=O)N2C` (centres undefined), the Kd is reported as > 4 mM (inactive).

`Cc1cc(C(=O)N2CCCCCC2)cs1` was tested, and the Kd was > 4 mM (inactive).

With `O=C(NCc1ccc2c(c1)OCO2)c1cccs1` the Kd was > 4 mM (inactive).

`NC(=O)c1ccsc1N` was tested, and the Kd was > 4 mM (inactive).

For `Cc1cccnc1NC1=NCC(C)S1` (centres undefined), the Kd was > 4 mM (inactive).

In the case of `N#CCSc1nc(-c2ccccc2)cs1`, the Kd is reported as > 4 mM (inactive).

In the case of `COc1cc2cc3c4cc(OC)c(OC)cc4cc[n+]3c(C)c2cc1OC`, the Kd is reported as > 4 mM (inactive).

`CSc1nnc2c(n1)OC=Nc1ccccc1-2` was tested, and the Kd was > 4 mM (inactive).

In the case of `Nc1nc2c3ccccc3nc(Cc3ccccc3)n2n1`, the Kd is reported as > 4 mM (inactive).

`Oc1ccc(-n2cncn2)cc1` was tested, and the Kd was > 4 mM (inactive).

`CNC(=O)C(=O)Nc1c(C)cccc1C` was tested, and the Kd was > 4 mM (inactive).

`CCSc1nc(N)c(NC(=O)c2ccco2)c(=O)[nH]1` was tested, and the Kd was > 4 mM (inactive).

For `CC(=O)Nc1cnn(-c2ccccc2)c(=O)c1Cl`, the Kd was > 4 mM (inactive).

`COc1cccc2c1CCC1=CC(=O)CC[C@@]12C` was tested, and the Kd was > 4 mM (inactive).

`CCCCCCCCCCCCCCC(C(=O)O)C(O)(CC(=O)OC)C(=O)O` (centres undefined) was tested, and the Kd was > 4 mM (inactive).

With `O=C(NCc1ccccc1Cl)c1cnn2cccnc12` the Kd was > 4 mM (inactive).

For `O=C1OC(N2CCOCC2)c2ccccc21` (centres undefined), the Kd was > 4 mM (inactive).

With `Cn1c(=O)n(-c2cccc(Cl)c2)c(=O)n1C` the Kd was > 4 mM (inactive).

In the case of `O=C(CSc1nnc2ccccn12)N1CCOCC1`, the Kd is reported as > 4 mM (inactive).

`Nc1nc(NCc2ccco2)nn1-c1ccccc1` was tested, and the Kd was > 4 mM (inactive).

`OC[C@H]1O[C@@H](O[C@H]2[C@H](O)[C@@H](O)[C@@H](O)O[C@@H]2CO)[C@H](O)[C@@H](O)[C@@H]1O` was tested, and the Kd was > 4 mM (inactive).

In the case of `O=C(CCc1ccc(O)cc1)c1c(O)cc(O)cc1O[C@@H]1O[C@H](CO)[C@@H](O)[C@H](O)[C@H]1O`, the Kd is reported as > 4 mM (inactive).

For `O=C(O)c1cc2ccccc2s1`, the Kd was > 4 mM (inactive).

`c1ccc2c(c1)ncn2CCn1cnc2ccccc21` was tested, and the Kd was > 4 mM (inactive).

`O=C(O)C1CCN(S(=O)(=O)c2cccs2)CC1` was tested, and the Kd was > 4 mM (inactive).

With `Cc1n[nH]c(C)c1N` the Kd was > 4 mM (inactive).

With `Cc1cc(C)n(CCCC(=O)O)n1` the Kd was > 4 mM (inactive).

With `CC1(C)C(=O)C=C[C@@]2(C)C1C=C[C@]1(C)C2CC[C@@]2(C)[C@H](c3ccoc3)OC(=O)C3OC321` (some centres undefined) the Kd was > 4 mM (inactive).

`Cn1c(=O)c2c(ncn2CCN)n(C)c1=O` was tested, and the Kd was > 4 mM (inactive).

`Cc1ccccc1-n1c(-c2ccncc2)n[nH]c1=S` was tested, and the Kd was > 4 mM (inactive).

In the case of `CC(=O)c1cc2c(s1)SCC(=O)N2`, the Kd is reported as > 4 mM (inactive).

With `C[C@@H]1C(=O)OC2[C@H](O)C34[C@@H]5OC(=O)[C@@]3(O[C@@H]3OC(=O)[C@H](O)[C@@]34[C@H](C(C)(C)C)[C@H]5O)[C@]21O` (some centres undefined) the Kd was > 4 mM (inactive).

`CCN1CCN(CCCNc2ncnc3nc[nH]c23)CC1` was tested, and the Kd was > 4 mM (inactive).

In the case of `CC(=O)O[C@H]1C[C@@H](OC(C)=O)C(C)(C)C2C[C@@H](OC(C)=O)[C@]3(C)C([C@H](OC(C)=O)C[C@@]4(C)[C@H](c5ccoc5)OC(=O)[C@H]5O[C@]543)[C@]21C` (some centres undefined), the Kd is reported as > 4 mM (inactive).

`Nc1cc(=O)[nH]c(=S)n1CCc1ccccc1` was tested, and the Kd was > 4 mM (inactive).

`Cc1ccc(Nc2nnns2)cc1C` was tested, and the Kd was > 4 mM (inactive).

With `CC(=O)c1cccc(NS(=O)(=O)N2CCCCC2)c1` the Kd was > 4 mM (inactive).

For `CC(=O)Nc1cccc(N2CCCC2=O)c1`, the Kd was > 4 mM (inactive).

For `CC(C)NC(=O)c1nc2ccccc2s1`, the Kd was > 4 mM (inactive).

With `CCc1ccccc1NC(=O)c1cnccn1` the Kd was > 4 mM (inactive).

For `CCn1nnc(NC(=O)c2ccccc2Br)n1`, the Kd was > 4 mM (inactive).

`COc1ccc(C2CC(=O)NN2)cc1OC1CCCC1` (centres undefined) was tested, and the Kd was > 4 mM (inactive).

For `COc1ccc(-c2coc3c(OC)c(OC)cc(O)c3c2=O)cc1`, the Kd was > 4 mM (inactive).

`Cc1cc(=O)n2ncn(Cc3ccccc3)c2n1` was tested, and the Kd was > 4 mM (inactive).

With `O=C(c1ccco1)N1CCCN(C(=O)c2ccco2)CC1` the Kd was > 4 mM (inactive).

`Cc1cccc(NS(=O)(=O)c2cccs2)n1` was tested, and the Kd was > 4 mM (inactive).

For `CSc1n[nH]c(NCc2cccs2)n1`, the Kd was > 4 mM (inactive).

For `CC(C)CCCC(C)C1CCC2C3CC(=O)[C@H]4C[C@@H](O)CC[C@]4(C)C3CC[C@]12C` (some centres undefined), the Kd was > 4 mM (inactive).

With `O=C(CN1CCOCC1)Nc1nccs1` the Kd was > 4 mM (inactive).

In the case of `CSc1cccc(NC(=O)c2c(Cl)cnn2C)c1`, the Kd is reported as > 4 mM (inactive).

`CSc1nn(-c2ccccc2)c(N)c1C#N` was tested, and the Kd was > 4 mM (inactive).

With `C=CC(C1=CC(=O)C(OC)=CC1=O)c1ccccc1` (centres undefined) the Kd was > 4 mM (inactive).

`NC(CC(=O)O)C(=O)Nc1ccc(Cl)cc1` (centres undefined) was tested, and the Kd was > 4 mM (inactive).

With `CC1=NN(c2ccc(N)cc2)C(=O)C1` the Kd was > 4 mM (inactive).

In the case of `C=C1C2CC[C@@]3(C)[C@H](c4ccoc4)OC(=O)C[C@]13O[C@H]1CC(=O)C(C)(C)[C@H](C(O)C(=O)OC)[C@@]21C` (some centres undefined), the Kd is reported as > 4 mM (inactive).

With `Cn1c(=O)c2ccccc2n(Cc2ccccc2F)c1=O` the Kd was > 4 mM (inactive).

With `CN1CCOc2cc(C(=O)O)ccc21` the Kd was > 4 mM (inactive).

With `CC1=CCc2c(cc3oc(C)cc(=O)c3c2O)OC1` the Kd was > 4 mM (inactive).

For `O=C(Nc1ccccn1)C(=O)N1CCCC1`, the Kd was > 4 mM (inactive).

In the case of `c1ccc2[nH]c(-c3cscn3)nc2c1`, the Kd is reported as > 4 mM (inactive).

With `CNC(=S)N1CCN(C(=O)c2ccco2)CC1` the Kd was > 4 mM (inactive).

For `CN(C)S(=O)(=O)NCc1ccc2c(c1)OCO2`, the Kd was > 4 mM (inactive).

In the case of `CCSc1nc2ccccc2[nH]1`, the Kd is reported as > 4 mM (inactive).

For `Nc1ccc(O)cn1`, the Kd was > 4 mM (inactive).

With `S=C(c1cccnc1)N1CCOCC1` the Kd was > 4 mM (inactive).

For `Cc1cc(C(F)(F)F)nn1CC(N)=O`, the Kd was > 4 mM (inactive).

In the case of `NC(=O)C1CCN(Cc2ccccc2)CC1`, the Kd is reported as > 4 mM (inactive).

In the case of `CCOC(=O)c1cc2ccccc2oc1=O`, the Kd is reported as > 4 mM (inactive).

With `COc1ccc(-c2oc3cc(O[C@H]4O[C@H](CO)[C@@H](O)[C@H](O)[C@H]4O)c(OC)c(O)c3c(=O)c2OC)cc1O` the Kd was > 4 mM (inactive).

With `COCC(=O)/C=C1\Sc2ccccc2N1C` the Kd was > 4 mM (inactive).

`OCC1Cc2ccccc2N1` (centres undefined) was tested, and the Kd was > 4 mM (inactive).

With `C[C@@H]1[C@H]2[C@H](O[C@@H]3O[C@H](CO)[C@@H](O)[C@H](O)[C@H]3O)OC=C(C(=O)O)[C@H]2C[C@@H]1O` the Kd was > 4 mM (inactive).

In the case of `CC(=O)c1nnc2cc(C)nn2c1C`, the Kd is reported as > 4 mM (inactive).

For `CC(=O)Nc1cccc(Cn2cccn2)c1`, the Kd was > 4 mM (inactive).

In the case of `Cc1cc(C)n(-c2cccc3cccnc23)n1`, the Kd is reported as > 4 mM (inactive).

For `COc1ccc2[nH]cc(CCNC(C)=O)c2c1`, the Kd was > 4 mM (inactive).
